Laboratory results published in PMC12467433, “Isoniazid-Derived Hydrazones Featuring Piperazine/Piperidine Rings: Design, Synthesis, and Investigation of Antitubercular Activity” (Biomolecules, 2025).
In brackets after ≈: the same amount, converted by molar mass.

Assays:
[1] = tested on: INH-resistant Mtb clinical isolate with inhA promoter mutation; format: cell-based, Mycobacterium tuberculosis
[2] = tested on: INH-resistant Mtb clinical isolate with katG S315T mutation; format: cell-based, Mycobacterium tuberculosis

SMILES	MIC [1] [µM]	MIC [2] [µM]
COc1ccc(N2CCN(c3ccc(C=NNC(=O)c4ccncc4)cc3)CC2)cc1 [IP7, N′-(4-(4-(4-Methoxyphenyl)piperazin-1-yl)benzylidene)isonicotinohydrazide]	25 (≈ 10.4 µg/mL)	100 (≈ 41.5 µg/mL)
CN1CCN(c2ccc(C=NNC(=O)c3ccncc3)cc2)CC1 [IP10, N′-(4-(4-Methylpiperazin-1-yl)benzylidene)isonicotinohydrazide]	1.56 (≈ 0.505 µg/mL)	25 (≈ 8.09 µg/mL)
NNC(=O)c1ccncc1 [INH, isonicotinic acid hydrazide, reference compound]	1.56 (≈ 0.214 µg/mL)	6.25 (≈ 0.857 µg/mL)
CCOC(=O)C1CCN(c2ccc(C=NNC(=O)c3ccncc3)cc2)CC1 [IP12, Ethyl 1-(4-((2-isonicotinoylhydrazono)methyl)phenyl)piperidine-4-carboxylate]	1.56 (≈ 0.593 µg/mL)	25 (≈ 9.51 µg/mL)
O=C(NN=Cc1ccc(N2CCN(C3CCCCC3)CC2)cc1)c1ccncc1 [IP11, N′-(4-(4-Cyclohexylpiperazin-1-yl)benzylidene)isonicotinohydrazide]	0.78 (≈ 0.305 µg/mL)	12.5 (≈ 4.89 µg/mL)
O=C(NN=Cc1ccc(N2CCN(c3ncccn3)CC2)cc1)c1ccncc1 [IP9, N′-(4-(4-(Pyrimidin-2-yl)piperazin-1-yl)benzylidene)isonicotinohydrazide]	3.12 (≈ 1.21 µg/mL)	25 (≈ 9.69 µg/mL)
NC(=O)C1CCN(c2ccc(C=NNC(=O)c3ccncc3)cc2)CC1 [IP13, 1-(4-((2-Isonicotinoylhydrazono)methyl)phenyl)piperidine-4-carboxamide]	1.56 (≈ 0.548 µg/mL)	50 (≈ 17.6 µg/mL)
O=C(NN=Cc1ccc(N2CCN(c3ccccn3)CC2)cc1)c1ccncc1 [IP8, N′-(4-(4-(Pyridin-2-yl)piperazin-1-yl)benzylidene)isonicotinohydrazide]	1.56 (≈ 0.603 µg/mL)	50 (≈ 19.3 µg/mL)
